In patent publication EP0284935A1, “5-Substituted quinolone- and naphthyridone carboxylic acid derivatives” (BAYER AG, priority 1987, dated 1988):
≈ marks a conversion by molar mass, not a printed value.

Tests used:
Assay in all cases: Agar dilution test, minimum inhibitory concentration
Type in all cases: cell-based
[1] = test system: Staph. 1756; conditions: test strain Staph. 1756; Isosensitest-Agar (Oxoid), inoculum ca. 10^4 germs per inoculation point; read-out: Minimale Hemmkonzentrationen
[2] = test system: Pseudomonas Ellsworth; conditions: test strain Pseudomonas Ellsworth; Isosensitest-Agar (Oxoid), inoculum ca. 10^4 germs per inoculation point; read-out: Minimale Hemmkonzentrationen
[3] = test system: Enteroc. 27101; conditions: test strain Enteroc. 27101; Isosensitest-Agar (Oxoid), inoculum ca. 10^4 germs per inoculation point; read-out: Minimale Hemmkonzentrationen
[4] = test system: E.coli A261; conditions: Escherichia coli; test strain E.coli A261; Isosensitest-Agar (Oxoid), inoculum ca. 10^4 germs per inoculation point; read-out: Minimale Hemmkonzentrationen
[5] = test system: Serratia 16040; conditions: test strain Serratia 16040; Isosensitest-Agar (Oxoid), inoculum ca. 10^4 germs per inoculation point; read-out: Minimale Hemmkonzentrationen
[6] = test system: Enteroc. 9790; conditions: test strain Enteroc. 9790; Isosensitest-Agar (Oxoid), inoculum ca. 10^4 germs per inoculation point; read-out: Minimale Hemmkonzentrationen
[7] = test system: Proteus vulg. 1017; conditions: test strain Proteus vulg. 1017; Isosensitest-Agar (Oxoid), inoculum ca. 10^4 germs per inoculation point; read-out: Minimale Hemmkonzentrationen
[8] = test system: Klebsiella 8085; conditions: test strain Klebsiella 8085; Isosensitest-Agar (Oxoid), inoculum ca. 10^4 germs per inoculation point; read-out: Minimale Hemmkonzentrationen
[9] = test system: Proteus mir. 8223; conditions: test strain Proteus mir. 8223; Isosensitest-Agar (Oxoid), inoculum ca. 10^4 germs per inoculation point; read-out: Minimale Hemmkonzentrationen
[10] = test system: Providencia 12052; conditions: test strain Providencia 12052; Isosensitest-Agar (Oxoid), inoculum ca. 10^4 germs per inoculation point; read-out: Minimale Hemmkonzentrationen
[11] = test system: E.coli Neumann; conditions: Escherichia coli; test strain E.coli Neumann; Isosensitest-Agar (Oxoid), inoculum ca. 10^4 germs per inoculation point; read-out: Minimale Hemmkonzentrationen
[12] = test system: Staph. 133; conditions: test strain Staph. 133; Isosensitest-Agar (Oxoid), inoculum ca. 10^4 germs per inoculation point; read-out: Minimale Hemmkonzentrationen
[13] = test system: Providencia 12012; conditions: test strain Providencia 12012; Isosensitest-Agar (Oxoid), inoculum ca. 10^4 germs per inoculation point; read-out: Minimale Hemmkonzentrationen
[14] = test system: Pseudomonas Walter; conditions: test strain Pseudomonas Walter; Isosensitest-Agar (Oxoid), inoculum ca. 10^4 germs per inoculation point; read-out: Minimale Hemmkonzentrationen
[15] = test system: Klebsiella 63; conditions: test strain Klebsiella 63; Isosensitest-Agar (Oxoid), inoculum ca. 10^4 germs per inoculation point; read-out: Minimale Hemmkonzentrationen
[16] = test system: Staph. FK 422; conditions: test strain Staph. FK 422; Isosensitest-Agar (Oxoid), inoculum ca. 10^4 germs per inoculation point; read-out: Minimale Hemmkonzentrationen
[17] = test system: E.coli 455/7; conditions: Escherichia coli; test strain E.coli 455/7; Isosensitest-Agar (Oxoid), inoculum ca. 10^4 germs per inoculation point; read-out: Minimale Hemmkonzentrationen
[18] = test system: Morg. morg. 932; conditions: test strain Morg. morg. 932; Isosensitest-Agar (Oxoid), inoculum ca. 10^4 germs per inoculation point; read-out: Minimale Hemmkonzentrationen
[19] = test system: Morg. morg. 11006; conditions: test strain Morg. morg. 11006; Isosensitest-Agar (Oxoid), inoculum ca. 10^4 germs per inoculation point; read-out: Minimale Hemmkonzentrationen

MIC [1]: 0.06 µg/mL (≈ 0.159 µM)
MIC [2]: 0.06 µg/mL (≈ 0.159 µM)
MIC [3]: 0.25 µg/mL (≈ 0.661 µM)
MIC [4]: 0.25 µg/mL (≈ 0.661 µM)
MIC [5]: 4 µg/mL (≈ 10.6 µM)
MIC [6]: 0.25 µg/mL (≈ 0.661 µM)
MIC [7]: 0.06 µg/mL (≈ 0.159 µM)
MIC [8]: 0.03 µg/mL (≈ 0.0793 µM)
MIC [9]: 0.25 µg/mL (≈ 0.661 µM)
MIC [10]: 1 µg/mL (≈ 2.64 µM)
MIC [11]: 0.03 µg/mL (≈ 0.0793 µM)
MIC [12]: 0.06 µg/mL (≈ 0.159 µM)
MIC [13]: 0.06 µg/mL (≈ 0.159 µM)
MIC [14]: 0.5 µg/mL (≈ 1.32 µM)
MIC [15]: 0.03 µg/mL (≈ 0.0793 µM)
MIC [16]: 0.03 µg/mL (≈ 0.0793 µM)
MIC [17]: 1 µg/mL (≈ 2.64 µM)
MIC [18]: 0.03 µg/mL (≈ 0.0793 µM)
MIC [19]: 0.06 µg/mL (≈ 0.159 µM)
SMILES: CN1CCN(c2c(F)c(N)c3c(=O)c(C(=O)O)cn(C4CC4)c3c2F)CC1 [Beispiel 19, 5-Amino-1-cyclopropyl-6,8-difluor-1,4-dihydro-7-(4-methyl-1-piperanyl)-4-oxo-3-chinolincarbonsäure]
